Laboratory results as given in US11684675B2, “Dimeric collagen hybridizing peptides and methods of using” (University of Utah Research Foundation, priority 2015, dated 2023).

What was measured:
[1] = CD refolding (triple helix assembly) at 10° C. monitored at 225 nm; type: physicochemical
Description: Conversion was assumed to be at 100% after 96 h incubation at 4° C., and max trimer concentration was measured via CD ellipticity at 10° C. Samples were preheated to 80° C. in the sample cuvette for 10 min before being transferred directly to the sample holder held at a constant 10° C. Sample measurement began immediately. Initial time point for analysis was determined by measuring time for a blank (lx PBS) to thermally equilibrate in these conditions.
For all peptides, conversion was assumed to be at 100% after 96 h incubation at 4° C., and max trimer concentration was measured via CD ellipticity at 10° C. Samples were preheated to 80° C. in the sample cuvette for 10 min before being transferred directly to the sample holder held at a constant 10° C. Sample measurement began immediately. Initial time point for analysis was determined by measuring time for a blank (1×PBS) to thermally equilibrate in these conditions. This was set as the zero point for all peptides, as the large jump in CD due to temperature makes the initial jump irresolvable. (A) Rate of assembly of CHP 9 (60, 30, and 15 μM), over 2 h, monitored at 225 nm. (B) Rate of assembly of CHP 9d (30, 15, and 7.5 μM, corresponding to same CHP strand concentration from panel A), over 2 h, monitored at 225 nm. (C) Rate of assembly of CHP 6 (150 and 75 μM), over 2 h, monitored at 225 nm.
FIGS. 12A and 12B show CD refolding at 10° C. of CMPs monitored at 225 nm. CMPs were heated to 80° C. for 5 minutes before being placed into the CD and initial 2 min of monitored data was removed to eliminate thermal transition. Signal was normalized to that of a fully folded peptide.
Circular Dichroism: Circular Dichroism (CD) was measured for all peptides at 225 nm. Melting curves were taken on peptides between 10 and 80° C. at a heating rate of 0.5° C./min, with pauses at each 1° C. Refolding experiments were performed after peptide solutions were incubated at 4° C. for at least 12 hours. Concentrations were normalized to strand concentration.

[2] = system: crosslinked gelatin films; experiment: Binding of CF-labelled CHPs to crosslinked gelatin films at 37° C. with and without preheating; parameters: species or system porcine; settings: 20 μM, 37° C. overnight, PBS wash 20 h, FIG. 6C
Description: FIGS. 3A and 3B show the affinity of CHPs to gelatin films as monitored by fluorescence of conjugated CF fluorophore (492 ex, 533 em). (A) Fluorescence of CHPs bound to crosslinked gelatin after incubation at 37° C. overnight with no workup. (B) Fluorescence of CHPs remaining in crosslinked gelatin after incubation at 37° C. overnight without preheating, followed by washing with 1×PBS at 37° C. (20 h).
(A) Fraction of peptide remaining in a crosslinked gelatin film after 17 h at 25° C. (10 total washes). Values are normalized to fluorescence remaining in wells after 6 washes at 4° C. (>95% removal of CHPs 9r, 6r, and 5r). All washes performed in 1×PBS. (B) CHPs (15 μM) premixed into 10% porcine gelatin and preheated to 80° C. (10 min) before being added to a 96 well plate. Excess CHP-gelatin mixture was removed, then the premix was incubated at 4° C. for 2 hours. Wells were washed at 4° C., 5 times (>95% removal of CHPs 9r, 6r, and 5r). Wells were then washed for 2 hours (6 washes total) at 25° C. to monitor CHP remaining in the well. (C) Fluorescence of CHPs remaining in crosslinked gelatin after incubation at 37° C. overnight without preheating, followed by washing with 1×PBS at 37° C. (20 h). (D) Fluorescence of CHPs remaining in crosslinked gelatin after incubation at 37° C. overnight (80° C. preheating, 10 min), followed by washing with 1×PBS at 37° C. (20 h).
Dimeric CHPs were assessed for their ability to bind to collagen strands in crosslinked gelatin films. CHP solutions (20 μM in PBS) were added directly to the crosslinked gelatin films. For heated experiments, CHPs were preheated to 80° C. for 10 minutes before addition. Peptides were allowed to fully equilibrate with the gel at 37° C. overnight before being exposed to repeated washes (4×, PBS) at 37° C. to fully remove any non-specifically bound peptide and to determine binding level at body temperature. To measure retention, peptides were bound as previously described, but were subsequently washed with PBS 37° C. (5×1 h, 1×12 h) to measure retention within the gelatin films. […] Additionally, after a period of 20 hours, higher level of the dimeric CHP remained in the gelatin compared to the monomeric CHP.
A major limitation of the use of CHP in vivo, is the requirement of the triple helix to be fully disassembled before being injected. […] For this test, peptide solutions were allowed to warm to room temperature before being added (50 μL, 20 μM) to previously prepared crosslinked gelatin films. Solutions were then incubated at 37° C. overnight before removing the solution. Wells were washed at 37° C. with PBS (20 h) to determine binding. Preheated samples were prepared and incubated in the same way, but with preheating (80° C., 10 min) before being added to the crosslinked gelatin wells.

[(GPO)6G3)2KG [6d]
refolding after two hours of incubation ([1]; 10° C., same strand concentration): almost completely refolded in two hours
time at which half refolded ([1]; CD refolding, 37.5 μM): 10 min
binding to gelatin wells at 37° C. without preheating [2]: bind more significantly than the GPO9 monomer without preheating
